Assay results published in publication PMC11939361, “diAcCA, a Pro-Drug for Carnosic Acid That Activates the Nrf2 Transcriptional Pathway, Shows Efficacy in the 5xFAD Transgenic Mouse Model of Alzheimer’s Disease” (Antioxidants, 2025).
Values joined by “and” are separate entries in the source; they are usually repeats but may differ in a detail not shown here. Equal values may be shown once. “Also recorded” adds a separate entry of the source. Read-outs that look alike come from different tables or passages of the source.

How the values were obtained:
[1] = Shelf life / stability of the compound over time; format: physicochemical; conditions: storage (CA: even if kept in the dark and cold)
[2] = tested on: hiPSC-derived microglia (hiMG); experiment: hiMG transplanted into humanized mouse brain, inflammatory markers; format: in vivo, human
Protocol: The next day, immunostaining was performed on brain sections after 3 washes in PBS and incubation in the appropriate secondary antibody solution on a shaker for 2 h at room temperature. Secondary antibodies included Alexa 488 (A11008, 1:500, goat anti-rabbit, Life Technologies, Carlsbad, CA, USA) and Alexa 555 (A21424, 1:500, goat anti-mouse, Life Technologies). The sections were again washed with PBS 3 times, mounted on Superfrost plus slides (12-550-15, Fisher Scientific, Waltham, MA, USA) and dried at room temperature. […] For each brain, 3–6 images were acquired for each individual marker using a confocal fluorescence microscope (Nikon Eclipse Ti2) (Figure 1, Figure 2 and Figure 3, Supplementary Figure S1). Post image processing, quantification was performed using Fiji ImageJ (1.54f). For the Iba1-stained slides, a mask was made of cells co-labeled for HuNu and Iba1, and then caspase 1 staining was measured. […] For quantification, NeuN, Synapsin I, and GFAP staining were compared between groups by mean fluorescence intensity (MFI), Iba1 and caspase-1 staining was compared by integrated density (ID), Aβ and pTau staining were compared by % area of plaques/aggregates, as previously described. […]

[3] = in vivo; for AUC%Extrap: mouse
Protocol: (§1) We tested both CA and diAcCA compounds by oral gavage/PO at 10 mg/kg. Analysis was performed by LC-MS in the Scripps Florida Drug Development Core (Jupiter, FL, USA). The compounds were formulated in olive oil. CA went into the oil with minimal stirring, but diAcCA required longer stirring. Blood was collected in hematocrit tubes and centrifuged. […] Drug is therefore likely absorbed via enterocyte passage and through chylomicron absorbance, complicating the early time points of the PK curves.
(§2) Therefore, we decided to pre-weigh the CA into a vial and, in the vivarium, rapidly dissolve the compound in DMSO and then add Tween80/saline. The compound was dosed within five minutes of being dissolved, and the final concentrations were 5% DMSO and 95% of a 5% Tween80 solution in saline. […] Oral clearance calculations assume 100% bioavailability.
(§3) We also determined the stability and bioavailability of diAcCA compared to CA. For this purpose, individual mice were administered CA or diAcCA IV or via oral gavage/PO. For CA, the doses were 3 mg/kg for the IV route and 10 mg/kg for oral gavage/PO, and for diAcCA 10 mg/kg by oral gavage/PO.

[4] = in vivo; conditions: for AUC(0-inf): AUCINF_obs; for AUC(0-t): AUClast
Protocol: as §1, §2, §3

[5] = cited from earlier work
[6] = cited from earlier work; remark: listed apart in the source
[7] = male, C57Bl/6, mouse, po, 10 mg/kg
[8] = mouse, po, 10 mg/kg, Plasma concentration of carnosic acid

CC(C)c1cc2c(c(O)c1O)[C@@]1(C(=O)O)CCCC(C)(C)[C@@H]1CC2 [CA, carnosic acid]
shelf life / stability over time [1]: shelf life of only a couple of months | inflammatory response (Iba1 and caspase-1 expression) of transplanted hiMG ([2]; hiMG activated by α-synuclein/Aβ aggregates with or without cognate antibodies, pretreated with CA (2 µM), 2 weeks after transplantation): significantly prevented this inflammatory reaction; also recorded: prevented this effect | cleaved/activated caspase-1 integrated density (ID) ([2]; response to α-synuclein/Aβ aggregates in the presence of CA (2 µM), p = 0.0307): significant decrease | Calculated Concentration of carnosic acid in plasma ([3]; C57Bl/6, mouse, po, 6 h): 618 ng/mL | CL*F [3, 7]: 2.7 | AUC%Extrap ([3]; iv, 3 mg/kg): 1.77% | AUC%Extrap ([3]; po, 10 mg/kg): 4.13% | AUC(0-inf) ([4]; male, C57Bl/6, mouse, iv, 3 mg/kg): 15000 ng·h/mL | clearance ([4]; male, C57Bl/6, mouse, iv, 3 mg/kg, Cl_obs): 3.3 mL/min/kg | MRT inf ([4]; male, C57Bl/6, mouse, iv, 3 mg/kg, MRTINF_obs): 5.46 h | half-life ([4]; male, C57Bl/6, mouse, iv, 3 mg/kg, T1/2): 13 h | AUC(0-inf) [4, 7]: 10700 ng·h/mL | bioavailability ([4]; male, C57Bl/6, mouse, po, 10 mg/kg, F%): 16% | half-life ([4]; male, C57Bl/6, mouse, po, 10 mg/kg, T1/2): 19.9 h | AUC(0-inf) ([4]; mouse, iv, 3 mg/kg): 20100 ng·h/mL | AUC(0-t) ([4]; mouse, iv, 3 mg/kg): 59.5 µM·h | half-life ([4]; mouse, iv, 3 mg/kg, t1/2): 11.9 h | Tmax ([4]; mouse, iv, 3 mg/kg): 0.14 h | Cmax ([4]; mouse, iv, 5 mg/kg, mean Cmax of CA in plasma): 98.5 µM | half-life ([4]; mouse, iv, average half-life): 11.9 h | half-life ([4]; mouse, iv, half-life): ~12 h | AUC(0-inf) ([4]; mouse, po, 10 mg/kg): 9710 ng·h/mL | AUC(0-t) ([4]; mouse, po, 10 mg/kg): 28 µM·h | Cmax ([4]; mouse, po, 10 mg/kg, Cmax of CA in plasma): 4.45 µM | concentration at 480 min [4, 8]: 1 µM and 332 ng/mL | concentration at 4320 min [4, 8]: 64.4 nM and 21.4 ng/mL | half-life ([4]; mouse, po, 10 mg/kg, average half-life): 16.3 h | Cmax ([4]; mouse, po, 10 mg/kg, mean Cmax of CA): 4.45 µM | half-life ([4]; mouse, po, 10 mg/kg, t1/2): 16.3 h | Tmax ([4]; mouse, po, 10 mg/kg): 1.5 h | LD50 [5]: 7100 mg/kg | brain levels as share of the plasma level at peak values ([6]; PO and IV routes): approximately 10% | CA concentration in the brain, which is neuroprotective [6]: 1 to 2 µM | CA plasma concentration that produces the neuroprotective brain level [6]: 10 to 20 µM
